Reference: patent US20260053811A1, “METHODS OF TREATING HYPERTENSION IN OBESE SUBJECTS” (Mineralys Therapeutics, Inc., priority 2022, published 2026)

Tested on: hypertensive subjects
Assay: 24-hour ambulatory blood pressure monitoring (ABPM), incl. nighttime dip
Type: in vivo, human
Conditions: Part 1; for LSM Δ with Placebo, 24-hr DBP (ABPM, ANCOVA) / LSM Δ with Placebo, 24-hr Mean MAP (ABPM, ANCOVA) / LSM Δ with Placebo, 24-hr SBP (ABPM, ANCOVA) / LSM Δ with Placebo, Daytime Mean DBP (ABPM, ANCOVA) / LSM Δ with Placebo, Daytime Mean SBP (ABPM, ANCOVA) / LSM Δ with Placebo, Mean Central DBP (ABPM, ANCOVA) / LSM Δ with Placebo, Mean Central Mean BP (ABPM, ANCOVA) / LSM Δ with Placebo, Mean Central SBP (ABPM, ANCOVA) / LSM Δ with Placebo, Nighttime Mean DBP (ABPM, ANCOVA) / LSM Δ with Placebo, Nighttime Mean SBP (ABPM, ANCOVA): End of Treatment, FAS post-hoc; for 24-hr Mean DBP (ABPM), Mean (SD) / 24-hr Mean MAP (ABPM), Mean (SD) / 24-hr Mean SBP (ABPM), Mean (SD) / Daytime Mean DBP (ABPM), Mean (SD) / Daytime Mean SBP (ABPM), Mean (SD) / Nighttime Mean DBP (ABPM), Mean (SD) / Nighttime Mean SBP (ABPM), Mean (SD) / Subjects with nighttime dip 10-20% in 24-hour systolic ABPM / Subjects with nighttime dip <10% in 24-hour systolic ABPM / Subjects with nighttime dip >20% in 24-hour systolic ABPM: EoT; for 24-hr Mean DBP (ABPM), Mean (SD) / 24-hr Mean MAP (ABPM), Mean (SD) / 24-hr Mean SBP (ABPM), Mean (SD) / Daytime Mean DBP (ABPM), Mean (SD) / Daytime Mean SBP (ABPM), Mean (SD) / Nighttime Mean DBP (ABPM), Mean (SD) / Nighttime Mean SBP (ABPM), Mean (SD) / Subjects with nighttime dip 10-20% in 24-hour systolic ABPM / Subjects with nighttime dip <10% in 24-hour systolic ABPM / Subjects with nighttime dip >20% in 24-hour systolic ABPM / 24-hr Mean DBP (ABPM) CFB to EoT, Mean (SD) / 24-hr Mean MAP (ABPM) CFB to EoT, Mean (SD) / 24-hr Mean SBP (ABPM) CFB to EoT, Mean (SD) / Daytime Mean DBP (ABPM) CFB to EoT, Mean (SD) / Daytime Mean SBP (ABPM) CFB to EoT, Mean (SD) / Nighttime Mean DBP (ABPM) CFB to EoT, Mean (SD) / Nighttime Mean SBP (ABPM) CFB to EoT, Mean (SD): FAS
Method: Ambulatory blood pressure monitoring was accomplished with an ambulatory blood pressure monitoring device that consists of a blood pressure cuff worn on a subject's arm attached to a small recording device that is typically attached to the subject's belt or waistband.
The ABPM device is worn for 24 hours. Throughout that period, the device records the subject's blood pressure at regular intervals, during the subject's routine daily activities and while they are sleeping. The ABPM thus provides a complete record of the subject's blood pressure over a 24-hour period.
24-hour ABPM was measured in the clinic at baseline and Study Week 7. If, for any reason, the ABPM procedure was deemed a failure at the end of Study Week 7, it may have been repeated at Study Week 8 and therefore no imputation was employed regardless of use of rescue medications. Additionally, ABPM was also collected at the end of Study Week 4 in Part 2. If a repeat test was performed, it supersedes the original test results for that visit.
Specific derived variables based on ABPM measurements include mean 24-hour, mean Daytime, and mean Nighttime of SBP, DBP, and heart rate.
Change from baseline to Week 7 in 24-hour mean SBP (and DBP) based on ABPM will be analyzed using an ANCOVA with a term for treatment group and a baseline mean 24-hour value as a covariate.
The nighttime dip is defined as
100%×(mean daytime SBP−mean nighttime SBP)/mean daytime SBP
It is expressed as a percentage and is summarized by treatment group and visit using descriptive statistics. In addition, the number and percentage of subjects with nighttime dip in each of the dipper categories (Bloomfield & Park, 2015) is presented by treatment group and visit. The categories are: • (a) <10% • (b) 10-20% inclusive • (c) >20%
Secondary endpoints of this study were: • (a) Change in 24-hour ambulatory blood pressure monitoring (ABPM) parameters (systolic and diastolic) from baseline to the end of Study Week 7. • (b) Change in office-measured SBP from baseline to the end of Study Weeks 1, 2, 3, 4, 5, 6, and 7. • (c) Change in office-measured diastolic blood pressure (DBP) from baseline to the end of Study Weeks 1, 2, 3, 4, 5, 6, 7, and 8. • (d) Proportion of subjects who achieve office-measured BP of ≤130/80 mm Hg by the end of Study Week 8.

## CC(=O)N[C@H]1CC[C@H](NC(=O)CN2CCN(c3nncc(-c4ccc(C)cc4)n3)CC2)CC1 [Compound A HBr]
12.5 mg BID
  LSM Δ with Placebo, 24-hr DBP (ABPM, ANCOVA): −4.24 mmHg
  LSM Δ with Placebo, 24-hr Mean MAP (ABPM, ANCOVA): −4.58 mmHg
  LSM Δ with Placebo, 24-hr SBP (ABPM, ANCOVA): −4.76 mmHg
  LSM Δ with Placebo, Daytime Mean DBP (ABPM, ANCOVA): −4.19 mmHg
  LSM Δ with Placebo, Daytime Mean SBP (ABPM, ANCOVA): −4.96 mmHg
  LSM Δ with Placebo, Mean Central DBP (ABPM, ANCOVA): −4.85 mmHg
  LSM Δ with Placebo, Mean Central Mean BP (ABPM, ANCOVA): −6.08 mmHg
  LSM Δ with Placebo, Mean Central SBP (ABPM, ANCOVA): −7.19 mmHg
  LSM Δ with Placebo, Nighttime Mean DBP (ABPM, ANCOVA): −3.92 mmHg
  LSM Δ with Placebo, Nighttime Mean SBP (ABPM, ANCOVA): −3.9 mmHg
  24-hr Mean DBP (ABPM), Mean (SD): 77.63 (11.03) mmHg
  24-hr Mean MAP (ABPM), Mean (SD): 105.41 (12.62) mmHg
  24-hr Mean SBP (ABPM), Mean (SD): 133.19 (14.86) mmHg
  Daytime Mean DBP (ABPM), Mean (SD): 79.69 (10.81) mmHg
  Daytime Mean SBP (ABPM), Mean (SD): 135.38 (14.97) mmHg
  Nighttime Mean DBP (ABPM), Mean (SD): 72.44 (12.25) mmHg
  Nighttime Mean SBP (ABPM), Mean (SD): 126.81 (16.69) mmHg
  Subjects with nighttime dip 10-20% in 24-hour systolic ABPM: 5 (31.3) n (%)
  Subjects with nighttime dip <10% in 24-hour systolic ABPM: 11 (68.8) n (%)
  Subjects with nighttime dip >20% in 24-hour systolic ABPM: 0 n (%)
  24-hr Mean DBP (ABPM) CFB to EoT, Mean (SD): −5.38 (8.59) mmHg
  24-hr Mean MAP (ABPM) CFB to EoT, Mean (SD): −5.53 (10.63) mmHg
  24-hr Mean SBP (ABPM) CFB to EoT, Mean (SD): −5.69 (12.90) mmHg
  Daytime Mean DBP (ABPM) CFB to EoT, Mean (SD): −4.25 (9.64) mmHg
  Daytime Mean SBP (ABPM) CFB to EoT, Mean (SD): −4.06 (14.48) mmHg
  Nighttime Mean DBP (ABPM) CFB to EoT, Mean (SD): −6.00 (10.17) mmHg
  Nighttime Mean SBP (ABPM) CFB to EoT, Mean (SD): −7.50 (16.17) mmHg
12.5 mg QD
  LSM Δ with Placebo, 24-hr DBP (ABPM, ANCOVA): −1.44 mmHg
  LSM Δ with Placebo, 24-hr Mean MAP (ABPM, ANCOVA): −1.62 mmHg
  LSM Δ with Placebo, 24-hr SBP (ABPM, ANCOVA): −1.5 mmHg
  LSM Δ with Placebo, Daytime Mean DBP (ABPM, ANCOVA): −2.47 mmHg
  LSM Δ with Placebo, Daytime Mean SBP (ABPM, ANCOVA): −2.14 mmHg
  LSM Δ with Placebo, Mean Central DBP (ABPM, ANCOVA): −1.29 mmHg
  LSM Δ with Placebo, Mean Central Mean BP (ABPM, ANCOVA): 0.06 mmHg
  LSM Δ with Placebo, Mean Central SBP (ABPM, ANCOVA): 1.92 mmHg
  LSM Δ with Placebo, Nighttime Mean DBP (ABPM, ANCOVA): −1.53 mmHg
  LSM Δ with Placebo, Nighttime Mean SBP (ABPM, ANCOVA): −0.21 mmHg
  24-hr Mean DBP (ABPM), Mean (SD): 79.93 (7.33) mmHg
  24-hr Mean MAP (ABPM), Mean (SD): 109.47 (10.81) mmHg
  24-hr Mean SBP (ABPM), Mean (SD): 139.00 (16.31) mmHg
  Daytime Mean DBP (ABPM), Mean (SD): 81.53 (6.79) mmHg
  Daytime Mean SBP (ABPM), Mean (SD): 141.13 (15.62) mmHg
  Nighttime Mean DBP (ABPM), Mean (SD): 74.29 (9.59) mmHg
  Nighttime Mean SBP (ABPM), Mean (SD): 132.00 (18.11) mmHg
  Subjects with nighttime dip 10-20% in 24-hour systolic ABPM: 5 (35.7) n (%)
  Subjects with nighttime dip <10% in 24-hour systolic ABPM: 9 (64.3) n (%)
  Subjects with nighttime dip >20% in 24-hour systolic ABPM: 0 n (%)
  24-hr Mean DBP (ABPM) CFB to EoT, Mean (SD): −2.27 (8.35) mmHg
  24-hr Mean MAP (ABPM) CFB to EoT, Mean (SD): −3.73 (12.21) mmHg
  24-hr Mean SBP (ABPM) CFB to EoT, Mean (SD): −5.20 (16.55) mmHg
  Daytime Mean DBP (ABPM) CFB to EoT, Mean (SD): −2.60 (8.43) mmHg
  Daytime Mean SBP (ABPM) CFB to EoT, Mean (SD): −4.80 (15.10) mmHg
  Nighttime Mean DBP (ABPM) CFB to EoT, Mean (SD): −3.21 (9.55) mmHg
  Nighttime Mean SBP (ABPM) CFB to EoT, Mean (SD): −5.43 (20.36) mmHg
25 mg BID
  LSM Δ with Placebo, 24-hr DBP (ABPM, ANCOVA): −5.13 mmHg
  LSM Δ with Placebo, 24-hr Mean MAP (ABPM, ANCOVA): −6.68 mmHg
  LSM Δ with Placebo, 24-hr SBP (ABPM, ANCOVA): −8.04 mmHg
  LSM Δ with Placebo, Daytime Mean DBP (ABPM, ANCOVA): −5.64 mmHg
  LSM Δ with Placebo, Daytime Mean SBP (ABPM, ANCOVA): −8.76 mmHg
  LSM Δ with Placebo, Mean Central DBP (ABPM, ANCOVA): −7.36 mmHg
  LSM Δ with Placebo, Mean Central Mean BP (ABPM, ANCOVA): −8.87 mmHg
  LSM Δ with Placebo, Mean Central SBP (ABPM, ANCOVA): −10.19 mmHg
  LSM Δ with Placebo, Nighttime Mean DBP (ABPM, ANCOVA): −3.28 mmHg
  LSM Δ with Placebo, Nighttime Mean SBP (ABPM, ANCOVA): −4.66 mmHg
  24-hr Mean DBP (ABPM), Mean (SD): 76.50 (10.59) mmHg
  24-hr Mean MAP (ABPM), Mean (SD): 103.10 (10.92) mmHg
  24-hr Mean SBP (ABPM), Mean (SD): 129.69 (12.57) mmHg
  Daytime Mean DBP (ABPM), Mean (SD): 79.04 (10.41) mmHg
  Daytime Mean SBP (ABPM), Mean (SD): 132.58 (13.62) mmHg
  Nighttime Mean DBP (ABPM), Mean (SD): 71.38 (11.94) mmHg
  Nighttime Mean SBP (ABPM), Mean (SD): 123.92 (12.17) mmHg
  Subjects with nighttime dip 10-20% in 24-hour systolic ABPM: 4 (16.7) n (%)
  Subjects with nighttime dip <10% in 24-hour systolic ABPM: 19 (79.2) n (%)
  Subjects with nighttime dip >20% in 24-hour systolic ABPM: 1 (4.2) n (%)
  24-hr Mean DBP (ABPM) CFB to EoT, Mean (SD): −6.12 (9.77) mmHg
  24-hr Mean MAP (ABPM) CFB to EoT, Mean (SD): −7.42 (12.49) mmHg
  24-hr Mean SBP (ABPM) CFB to EoT, Mean (SD): −8.73 (15.67) mmHg
  Daytime Mean DBP (ABPM) CFB to EoT, Mean (SD): −6.23 (10.43) mmHg
  Daytime Mean SBP (ABPM) CFB to EoT, Mean (SD): −9.08 (17.41) mmHg
  Nighttime Mean DBP (ABPM) CFB to EoT, Mean (SD): −4.13 (10.86) mmHg
  Nighttime Mean SBP (ABPM) CFB to EoT, Mean (SD): −5.96 (15.37) mmHg
50 mg QD
  LSM Δ with Placebo, 24-hr DBP (ABPM, ANCOVA): −2.74 mmHg
